Reference: paper PMC5906549, “Cathelicidin-Derived Antimicrobial Peptides Inhibit Zika Virus Through Direct Inactivation and Interferon Pathway” (Frontiers in Immunology, 2018)
Peptide text beside a SMILES is read from it.

Key:
ZIKV strain MR766 [1] = assay: Intracellular ZIKV RNA in infected human fetal astrocytes, peptide pre-treatment (real-time RT-PCR); format: cell-based, Zika virus; conditions: for Reduction of ZIKV RNA levels: astrocytes, 10 µM, at 48 h; for Intracellular ZIKV RNA, % of the untreated ZIKV group / Dose dependence of intracellular ZIKV RNA decrease: human fetal astrocytes, 48 h; for Intracellular ZIKV RNA, % of the untreated ZIKV group: 2 h pre-treatment, ZIKV MOI 0.5, re-treated at 24 h, normalized to GAPDH, N = 3; for Dose dependence of intracellular ZIKV RNA decrease: pre-treatment 0.4 to 10 µM, ZIKV MOI 0.5
Method: Human fetal astrocytes were derived from a single-cell isolation process of fetal brain tissues as previously described ([25], [26]). Briefly, dissociated brain tissue was incubated with 0.25% trypsin for 30 min, followed by neutralization with 10% fetal bovine serum (FBS), and further dissociated by trituration. The single-cell suspension was cultured as adherent cells in DMEM/F12 (Thermo Fisher Scientific, Waltham, MA, USA), supplemented with 10% FBS, penicillin (50 units/mL), and streptomycin (50 µg/mL) (Thermo Fisher Scientific). […] Vero cells (ATCC, CCL-81), an African green monkey kidney cell line, were maintained in Dulbecco’s Modified Eagle Medium (DMEM) with 5% FBS. Experiments with ZIKV were performed exclusively inside a BioSafety Level 2 (laboratory). All procedures utilized in this study were approved by the Institutional Biosafety Committee (IBC 16-05-013BL2) and followed biosafety level II practices as shown in National Institutes of health (NIH) Guideline Appendix G-II-B. ZIKV strain MR766 (Uganda, 1947) was obtained from ZeptoMetrix Corp., Buffalo, NY, USA, and propagated in Vero cells. ZIKV infection of the Vero cells and fetal astrocytes was previously characterized ([27]) and all infections in the current studies were at the MOI of 0.5.
Total mRNA was isolated with TRIzol Reagent (Thermo Fisher Scientific) and RNeasy Mini Kit (QIAGEN Inc., Valencia, CA, USA) following the manufacturer’s recommendations. Two real-time RT-PCR methods were used for the current studies. First, SYBR Green-based RT-PCR assay was used to determine intracellular ZIKV RNA in Vero cells. For this assay, reverse transcription was performed using Verso cDNA synthesis Kit (Thermo Fisher Scientific) and 1 µg of total RNA in a 15-µL final volume. The RT-PCR analyses were performed using 7.5-µL SYBR Green PCR Master Mix (Thermo Fisher Scientific) with 0.5-µL cDNA, 1.5-µL H2O, 5.5-µL oligonucleotide primer pairs at 10 µM. […] GG-3. PCR program: 1, 50°C for 2 min; 2, 95°C for 2 min; 3, 95°C for 15 s; 4, specific annealing temperature for 15 s; 5, 72°C for 1 min. Steps 2–4 were repeated 40 times. All samples were amplified in triplicate for analysis. Relative ZIKV RNA levels were determined and standardized with a GAPDH internal control using comparative ΔΔCT method ([35]). Second, TaqMan-based RT-PCR assay was used to determine intracellular ZIKV RNA and other gene expressions in Figures 3–6 and extracellular ZIKV RNA in Figure 3. The TaqMan assay was performed in a StepOne^TM Real-Time PCR system (Thermo Fisher Scientific). Primers used for TaqMan real-time RT-PCR were all from the Thermo Fisher Scientific, which included ZIKV (forward sequence: 5-[…]-3, reverse sequence: 5- […]-3, and probe sequence: 5′-[…]-3), IFN-α2 (Hs00265051_s1), IFN-β1 (Hs01077958_s1), eukaryotic 18-s rRNA (Hs99999901_s1), β-actin (Hs99999903_m1), and GAPDH (Catalog number: 4310884E). Relative ZIKV mRNA levels were determined and standardized with a GAPDH or 18-s rRNA endogenous control using comparative ΔΔCT method ([35]). […] For ZIKV in supernatants, RNA was extracted from the supernatants through TRIzol™ LS Reagent (Thermo Fisher Scientific, 10296028) following the manufacturer’s manual. […] Quantitative genomic RNA from ZIKV (NR-1838DQ, ATCC) was used as a standard to calculate viral copies.

ZIKV strain MR766 [2] = assay: Viral attachment assay at 4°C in human fetal astrocytes; format: cell-based, Zika virus; conditions: astrocytes pre-incubated at 4°C half an hour, peptide along with ZIKV MOI 0.5 for 2 h at 4°C; normalized to 18-s rRNA; N = 3
Method: Viral attachment assay was adapted from a previous publication ([36]) with modifications. Briefly, primary human fetal astrocytes were pre-incubated at 4°C for half an hour and then treated with AMPs along with ZIKV infection at the MOI of 0.5. After infection at 4°C for 2 h, cultures were washed with fresh medium for three times and RNA was isolated from whole cells. ZIKV RNA was determined through real-time RT-PCR. Data were normalized to 18-s rRNA and presented as fold change compared with the ZIKV group. One experimental group was subjected to trypsin digestion to remove any attached virions. This group served as a positive control for the viral attachment experiment.
(A) Primary human fetal astrocytes were pre-incubated at 4°C for half an hour and then treated with antimicrobial peptides along with ZIKV infection at the MOI of 0.5 for 2 h. Cultures were then washed with fresh medium for three times. […] Data were normalized to 18-s rRNA and presented as fold change compared with the ZIKV group. The trypsin digestion group readily removes any attached virions and thus serves as positive control. […] After infection for 2 h, cultures were washed with fresh medium for three times and RNA was isolated from whole cells. ZIKV RNA was determined through real-time RT-PCR.

ZIKV strain MR766 [3] = assay: Direct inactivation of ZIKV by AMPs, plaque-forming assay; parameters: species or system Zika virus; conditions: 37°C; for Number of infectious virions after direct incubation: 10 µM peptide with ZIKV, all the time points (1, 2, 4 h), plaque assay; for Inactivation of Zika virions: plaque assay on Vero
Method: Vero cells were plated into 12-well plates at 5 (10^5 cells/well the day before infection). On the day of infection, the monolayers of Vero cells were inoculated with 100 µL of 10-fold serial dilutions of viral stocks and incubated at 37 °C for 1 h. After viral inoculation, medium containing ZIKV particles was removed and 1 ml overlay containing 0.6% molecular biology grade agarose (Agarose Unlimited, Alachua, FL, USA) in Modified Eagle Medium (Gibco) with 2% FBS. Cells were maintained at 37°C in 5% CO2 for 4 days. On day 5, cells were fixed with 4% paraformaldehyde solution in PBS and stained with 1% crystal violet solution in 20% methanol in water. Viral plaques were photographed using a CanonScan 9950F scanner and each plaque was counted as a plaque-forming unit (PFU). Viral titer was calculated as PFU/[volume virus (mL) × (dilution factor)].
Zika virus viral stocks were diluted to 10^6 PFU/mL with serum-free medium and peptides were added at the indicated final concentrations. The mixtures were incubated at 37°C for 1–4 h. At each time point, 200 µL of the mixtures was removed for virus yield determination. Ten-fold serial dilutions of the mixtures were prepared and number of infectious Zika virions in the inoculum was determined by the aforementioned plaque-forming assay on Vero cell monolayers.
Figure 7 GF-17 directly inactivates Zika virions. (A) Experimental scheme. Briefly, Zika virus (ZIKV) virions were directly treated with antimicrobial peptides at 37°C. Part of the inoculum was removed at the indicated time points and serial diluted for the plaque-forming assay to determine the number of infectious Zika virions. (B) Quantification of the viral plaques was performed and plaque-forming unit at each of the treatment groups was shown. ANOVA and Bonferroni post-test were performed on all groups. *** p < 0.001, as compared with the ZIKV control group (CTL, control).

Compound	Reduction of ZIKV RNA levels (ZIKV strain MR766 [1])	Intracellular ZIKV RNA, % of the untreated ZIKV group (ZIKV strain MR766 [1]; peptide 2 µM) [%]	Intracellular ZIKV RNA, % of the untreated ZIKV group (ZIKV strain MR766 [1]; peptide 10 µM) [%]	Dose dependence of intracellular ZIKV RNA decrease (ZIKV strain MR766 [1])	ZIKV RNA levels in astrocytes at 4°C (viral attachment) (ZIKV strain MR766 [2])	Number of infectious virions after direct incubation (ZIKV strain MR766 [3])	Inactivation of Zika virions (ZIKV strain MR766 [3]; 10 µM peptide mixed with ZIKV (10^6 PFU/mL, serum-free medium), 1-h incubation) [%]	Inactivation of Zika virions (ZIKV strain MR766 [3]; 10 µM peptide mixed with ZIKV, 2-h incubation) [%]	Inactivation of Zika virions (ZIKV strain MR766 [3]; 10 µM peptide mixed with ZIKV, 4-h incubation) [%]
CC[C@H](C)[C@H](NC(=O)[C@H](CCCCN)NC(=O)[C@H](CCCCN)NC(=O)[C@H](Cc1ccccc1)NC(=O)[C@H](CC(C)C)NC(=O)[C@H](CCCCN)NC(=O)[C@H](CCCCN)NC(=O)[C@H](Cc1ccccc1)NC(=O)[C@H](CCCCN)NC(=O)[C@H](CCCCN)NC(=O)[C@H](CCCNC(=N)N)NC(=O)[C@H](Cc1ccccc1)NC(=O)[C@H](CCCNC(=N)N)NC(=O)[C@H](CCCCN)NC(=O)[C@H](Cc1ccccc1)NC(=O)[C@H](CCCNC(=N)N)NC(=O)CN)C(=O)N[C@@H](CO)C(=O)O [BMAP-18] (H-GRFKRFRKKFKKLFKKIS-OH; N-terminus and C-terminus assumed)	> 95%	15	4	decreased intracellular ZIKV RNA in a dose-dependent manner	did not alter the ZIKV RNA levels	did not significantly change the number of infectious virions	–	–	–
CC[C@H](C)[C@H](NC(=O)[C@H](CCCNC(=N)N)NC(=O)[C@H](CCC(N)=O)NC(=O)[C@@H](NC(=O)[C@@H](NC(=O)[C@H](CCCNC(=N)N)NC(=O)[C@H](CCCCN)NC(=O)[C@H](Cc1ccccc1)NC(=O)CN)[C@@H](C)CC)C(C)C)C(=O)N[C@@H](CCCCN)C(=O)N[C@@H](CC(=O)O)C(=O)N[C@@H](Cc1ccccc1)C(=O)N[C@@H](CC(C)C)C(=O)N[C@@H](CCCNC(=N)N)C(=O)N[C@@H](CC(N)=O)C(=O)N[C@@H](CC(C)C)C(=O)N[C@H](C(N)=O)C(C)C [GF-17] (H-GFKRIVQRIKDFLRNLV-NH2; N-terminus and C-terminus assumed)	over 99%	46	1	decreased intracellular ZIKV RNA in a dose-dependent manner	did not alter the ZIKV RNA levels	–	> 95	> 99	99
CC[C@H](C)[C@H](NC(=O)[C@H](CCCNC(=N)N)NC(=O)[C@H](CCC(N)=O)NC(=O)[C@@H](NC(=O)[C@@H](NC(=O)[C@@H](N)CCCNC(=N)N)[C@@H](C)CC)C(C)C)C(=O)N[C@@H](CCCCN)C(=O)N[C@@H](CC(=O)O)C(=O)N[C@@H](Cc1ccccc1)C(=O)N[C@@H](CC(C)C)C(=O)O [RI-10, reference compound] (H-RIVQRIKDFL-OH; N-terminus and C-terminus assumed)	–	–	–	but not RI-10, decreased intracellular ZIKV RNA	did not alter the ZIKV RNA levels	did not significantly change the number of infectious virions	–	–	–
